Reference: ChEMBL document CHEMBL3046301, “A study on the genotoxic activities of some new benzoxazoles” (Med Chem Res, 2007)
Converted amounts (≈) assume the structure as drawn.

Columns and labels:
[1] = Ratio of CR50 for wild type Bacillus subtilis H17 to CR50 for recombination-deficient Bacillus subtilis M45; type: ADME, organism-based
Bacillus subtilis [2] = test: Genotoxicity in recombination-deficient Bacillus subtilis M45 assessed as growth inhibition; type: toxicity, organism-based; details: in vivo
Bacillus subtilis [3] = test: Genotoxicity in wild type Bacillus subtilis H17 assessed as growth inhibition; type: toxicity, organism-based; details: in vivo

Row | SMILES | selectivity ratio [1] | MIC (Bacillus subtilis [2]) [µg/mL] | MIC (Bacillus subtilis [3]) [µg/mL]
1 | O=[N+]([O-])c1cc2oc(C3CCCCC3)nc2cc1Cl | 1.25 | 500 | 500 (≈ 1780 µM)
2 | CCOc1ccc(Cc2nc3cc([N+](=O)[O-])ccc3o2)cc1 | 1.27 | 500 | 500 (≈ 1680 µM)
3 | Nc1ccc(-c2nc3cc(Cl)ccc3o2)cc1 | 1 | 2000 | 2000 (≈ 8170 µM)
4 | Cc1ccc2[nH]c(Cc3ccc(Br)cc3)nc2c1 | 0.49 | 125 | 30 (≈ 99.6 µM)
5 | Clc1ccc2[nH]c(CC3CCCCC3)nc2c1 | 0.93 | 500 | 1000 (≈ 4020 µM)
6 | O=C(Nc1ccc2oc(-c3ccccc3)nc2c1)c1ccc(F)cc1 | 1.6 | 500 | 1000 (≈ 3010 µM)
7 | CCc1ccc(-c2nc3cc(NC(=O)Cc4ccc(Br)cc4)ccc3o2)cc1 | 0.95 | 500 | 500 (≈ 1150 µM)
8 | Cc1ccc2nc(COc3ccccc3)oc2c1 | 0.93 | 1000 | 1000 (≈ 4180 µM)
9 | Clc1ccc(OCc2nc3cc(Cl)ccc3o2)cc1 | 1 | 500 | 500 (≈ 1700 µM)
10 | Clc1ccc2oc(Cc3ccc(Br)cc3)nc2c1 | 1.05 | 1000 | 1000 (≈ 3100 µM)
11 | O=C(Cc1ccc(F)cc1)Nc1ccc2oc(Cc3ccccc3)nc2c1 | 0.58 | 500 | 500 (≈ 1390 µM)
12 | O=[N+]([O-])c1ccc2oc(-c3ccccc3)nc2c1 | 1.07 | 500 | 500 (≈ 2080 µM)
13 | CNc1ccc(-c2nc3ccccc3o2)cc1 | 1.5 | 500 | 1000 (≈ 4460 µM)
14 | Nc1ccc2oc(-c3ccc(Br)cc3)nc2c1 | 1.05 | 1000 | 1000 (≈ 3460 µM)
15 | Cc1ccc(Cc2nc3cc(N)ccc3o2)cc1 | 1.74 | 500 | 500 (≈ 2100 µM)
16 | Nc1ccc2oc(Cc3ccc(F)cc3)nc2c1 | 1.25 | 500 | 500 (≈ 2060 µM)
17 | Cc1ccc2nc(-c3ccccc3Cl)oc2c1 | 1.85 | 60 | 125 (≈ 513 µM)
18 | Cc1ccc2oc(-c3ccccc3[N+](=O)[O-])nc2c1 | 0.96 | 500 | 500 (≈ 1970 µM)
19 | O=[N+]([O-])c1cc[n+]([O-])c2ccccc12 [4-NITROQUINOLINE-1-OXIDE] | 0.69 | 60 | 1000 (≈ 5260 µM)
